Structures can show the parent of a compound that is named as a salt.
Test system: pre-diabetic and type 2 diabetes mellitus patients
Experiment: Clinical trial: glycosylated hemoglobin (HbA1c)
Format: in vivo, human
Details: for Effect on glycosylated hemoglobin level (in words) / Post-treatment HbA1c - pre-treatment HbA1c, mean value / Post-treatment HbA1c <7.0% with no hypoglycemia, Yes-N (%) / Post-treatment HbA1c <7.0%, Yes-N (%): 16 weeks of treatment; for Effect on glycosylated hemoglobin level (in words): Kruskal-Wilcox test; for Post-treatment HbA1c, mean value: after 16 weeks of treatment; for Pre-treatment HbA1c, mean value: baseline before treatment
Protocol: From June 2015 to October 2018, a double-blind, randomized, and parallel-controlled trial, studying the effects of the combined use of Bifidobacterium and berberine on pre-diabetic and type 2 diabetes mellitus patients, was conducted in 10 research centers in Xi'an, Yan'an and Shangluo of Shaanxi province, etc., including the First Affiliated Hospital of the Fourth Military Medical University. The trial included an enrollment stage of 2 weeks and a treatment stage of 16 weeks. After passing the first visit 1 (see V1 in Table 1), the subjects entered the enrollment stage, i.e., 2 weeks of lifestyle intervention, followed by a re-screening (see V2 in Table 1). The subjects were subjected to a 16-week course of treatment after passing the screening. See Table 1 for the detailed screening parameters. After the enrollment stage, the baseline data of the 300 successfully enrolled subjects were collected. Meanwhile, the subjects started to receive lifestyle guidance, and were randomly divided into four groups for 16 weeks of treatments. 1) Bifidobacterium group: the subjects were administered with Bifidobacterium capsules (Livzon Pharmaceutical Group Inc., batch no.: 20141013), 0.35 g/capsule, each capsule containing 50,000,000 viable bacteria (Bifidobacterium adolescentis DM8504), 2 capsules/time, 2 times/day, plus berberine placebo tablets (Northeast Pharma Group Shenyang First Pharma Co., Ltd., Lot no.: 20150101, containing 80.2% microcrystalline cellulose, 9.4% pregelatinized starch, 6.4% sodium carboxymethyl starch, 1% magnesium stearate, and 3% copovidone), 0.1 g/tablet, 5 tablets/time, 2 times/day. 2) Berberine group: the subjects were administered with berberine tablets (Northeast Pharma Group Shenyang First Pharma Co., Ltd., Lot no.: 130917, each tablet weighted 0.165 g and contained 0.1 g active berberine ingredient (berberine hydrochloride), with the same excipients as the placebo tablets), 5 tablets/time, 2 times/day, plus Bifidobacterium placebo capsules (Livzon Pharmaceutical Group Inc., Lot no.: 141001, specifically containing 0.348 g spray-dried lactose, and 0.002 g magnesium stearate), 0.35 g/capsule, 2 capsules/time, 2 times/day. 3) Combination Group: the subjects were administered with Bifidobacterium capsules, 0.35 g/capsule, each capsule containing 50,000,000 viable bacteria (B. adolescentis DM8504), 2 capsules/time, 2 times/day, plus berberine tablets, 0.1 g/tablet, each tablet containing 0.1 g active berberine ingredient (berberine hydrochloride), 5 tablets/time, 2 times/day. 4) Control group: the subjects were administered with Bifidobacteria placebo capsules, 0.35 g/capsule, 2 capsules/time, 2 times/day, plus berberine placebo tablets, 0.1 g/tablet, 5 tablets/time, 2 times/day. Bifidobacterium capsules were taken after meals and berberine tablets were taken before meals. Before blood collection, the subjects were kept still for 5 min. For serum insulin assays, 5 ml of whole blood was collected at fasting, and 30 min and 2 h post glucose intake, and then subjected to centrifugation […]. The obtained serum was collected in the cryogenic vials. For the glycosylated hemoglobin (HbA1c) test, 2 ml of whole blood was collected and placed in EDTA-containing tubes. For the GLP-1 and glucagon measurements, 5 ml of whole blood was collected in vacutainers containing EDTA and aprotinin at fasting, and 30 min and 2 h post meals, subjected to centrifugation, and the obtained serum was collected in cryogenic vials and stored at −20° C. Soybean-sized stool sample was placed in a dry and sterile collection tube, and sent to the detection center within 24 h for cryopreservation. […]

Row | Compound | Effect on glycosylated hemoglobin level (in words) | Post-treatment HbA1c - pre-treatment HbA1c, mean value (FAS) [%] | Post-treatment HbA1c <7.0% with no hypoglycemia, Yes-N (%) (FAS) | Post-treatment HbA1c <7.0%, Yes-N (%) (FAS) | Post-treatment HbA1c, mean value (FAS) [%] | Pre-treatment HbA1c, mean value (FAS) [%] | Post-treatment HbA1c <7.0% with no hypoglycemia, Yes-N (%) (PPS) | Post-treatment HbA1c <7.0%, Yes-N (%) (PPS)
1 | Bifidobacterium | no glycosylated hemoglobin lowing effect | −0.0545 | 76(76.00) N (%) | 88(88.00) N (%) | 6.1500 | 6.1900 | 61(73.49) N (%) | 71(85.54) N (%)
2 | COc1ccc2cc3[n+](cc2c1OC)CCc1cc2c(cc1-3)OCO2 [Berberine, berberine hydrochloride] | not significantly different from that of the combined use of berberine and Bifidobacterium | −0.1170 | 40(81.63) N (%) | 48(97.96) N (%) | 6.0800 | 6.1900 | 28(75.68) N (%) | 36(97.30) N (%)
